The source of these data is patent publication US8859596B2, “Compounds as cannabinoid receptor ligands” (priority 2008, dated 2014).

Where two headings read alike, the source gives them in different places.

The target in assay [1] is T1, rat CB2 (Rattus norvegicus (Rat), UniProt Q9QZN9). Nature of the assay: rat CB2 radioligand binding assay ([3H]CP 55,940 competition). The method in brief: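 Membranes from HEK293 cells stably expressing rat CB2 (20 μg protein/well) competed with 0.5 nM [3H]CP 55,940 and five displacer concentrations, 45 min at 30° C in Tris/EDTA/MgCl2/BSA buffer pH 7.4. Filtration and scintillation counting; nonspecific binding with 10 μM unlabeled CP 55,940.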

Assay [2] concerns the target T1, rat CB2. As to the kind of experiment: CB2 cyclase functional assay (HitHunter cAMP). The format is cell-based. Particulars: HEK cells, forskolin 18 μM. The method, then:
(§1) The cyclase functional assays were performed using the HitHunter™ cAMP assay kit from DiscoveRx (Fremont, Calif.) according to vendor's protocol. Briefly, HEK cells expressing CB2 or CB1 receptors (rat or human) were detached using cell dissociation buffer (Invitrogen, Carlsbad, Calif.), dispersed and placed in suspension at 10,000 cells per well in 96 well plates prior to the assay. Cell suspensions were incubated at 37° C. for 20 min with variable concentrations of test ligands and or 10 μM CP 55,940-positive control in the presence of a fixed concentration of forskolin (18 μM for rat CB2 and 37 μM for rat CB1) in Dulbescco's phosphate-buffered saline (Invitrogen, Carlsbad, Calif.) supplemented with bovine serum albumin (0.01% final concentration). The reactions were terminated by the addition of lysis buffer and the luminescence was detected following the procedure according to the manufacturer's instructions. EC50 values were calculated using sigmoidal dose-response curve fitting from Prism (GraphPad).

The target in the next assay is rat CB1 (Rattus norvegicus (Rat), UniProt P20272). Nature of the assay: CB1 cyclase functional assay (HitHunter cAMP). The format is cell-based. Particulars: HEK cells, forskolin 37 μM; read-out: rCB1 cyclase (EC50). The protocol:
as §1

The target in the next assay is human CB2 receptors (Homo sapiens (Human), UniProt P34972). As to the kind of experiment: human CB2 radioligand binding assay ([3H]CP 55,940 competition). The method in brief:
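Displacement of 0.5 nM [3H]CP 55,940 over 0.01 nM-10 μM test compound, measured on human CB2 membranes from stably transfected HEK293 cells. Incubation 90 min at 30 °C in Tris/EDTA/MgCl2/BSA, pH 7.4, then filter-bound radioactivity counted; 10 μM unlabeled CP 55,940 defined nonspecific binding.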

Assay [3] relates to β-amyloid-induced microglial activation. Particulars: in vitro; cited from earlier work.
The conditions of assay [4]: acute thermal, persistent, inflammatory, neuropathic pain models; cited from earlier work.
For assay [5] the following is noted: neuropathic, incisional, chronic and acute inflammatory pain; cited from earlier work.
Another assay concerns mice. Particulars: cited from earlier work.
Assay [6] deals with apolipoprotein E knockout mice. To be noted: low doses; cited from earlier work.
The next assay has as its system rat. Particulars: rat formalin model; cited from earlier work.
[7] abbreviates: HEK293 membranes, 0.5 nM [3H]CP 55,940, read-out: rat CB2 (Ki).
Where [8] appears, read: HEK293 membranes, 0.5 nM [3H]CP 55,940, read-out: human CB2 (Ki).

human CB2 receptors, sequence (P34972 whole entry): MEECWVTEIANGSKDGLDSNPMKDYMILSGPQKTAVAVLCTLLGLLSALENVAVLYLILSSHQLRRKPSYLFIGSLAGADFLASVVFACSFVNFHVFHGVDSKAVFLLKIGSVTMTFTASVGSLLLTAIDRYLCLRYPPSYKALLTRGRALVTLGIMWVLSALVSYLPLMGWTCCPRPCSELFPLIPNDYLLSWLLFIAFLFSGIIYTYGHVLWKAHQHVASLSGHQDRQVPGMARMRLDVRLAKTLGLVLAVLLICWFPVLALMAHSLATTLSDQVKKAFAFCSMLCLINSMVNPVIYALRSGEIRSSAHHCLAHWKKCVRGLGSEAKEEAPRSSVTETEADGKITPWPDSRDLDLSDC
T1 sequence (Q9QZN9 whole entry): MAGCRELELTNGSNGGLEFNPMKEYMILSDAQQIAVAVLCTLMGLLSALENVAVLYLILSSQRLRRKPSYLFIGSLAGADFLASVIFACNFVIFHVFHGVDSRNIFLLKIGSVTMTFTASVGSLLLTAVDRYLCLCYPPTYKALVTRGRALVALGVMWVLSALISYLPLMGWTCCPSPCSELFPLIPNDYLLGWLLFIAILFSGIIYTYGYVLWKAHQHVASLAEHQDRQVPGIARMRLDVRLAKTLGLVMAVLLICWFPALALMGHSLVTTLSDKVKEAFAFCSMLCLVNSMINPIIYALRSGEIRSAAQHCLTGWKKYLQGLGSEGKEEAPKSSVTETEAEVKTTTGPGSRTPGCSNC

As to `CC(C)(C)NOc1ccc(C(F)(F)F)cc1C(=O)/N=c1\sc(C(C)(C)C)nn1C[C@H]1CCCO1` [Example 153, 2-[(tert-butylamino)oxy]-N-[(2Z)-5-tert-butyl-3-[(2R)-tetrahydrofuran-2-ylmethyl]-1,3,4-thiadiazol-2(3H)-ylidene]-5-(trifluoromethyl)benzamide], the inhibitory constant (Ki) (as a rule, the dissociation constant of the complex between target and ligand, obtained from inhibition or displacement) came out at 3.2 nM at rat CB2 [1] (setting [7]) and 10 nM on human CB2 receptors (setting [8]). The EC50 (usually the concentration needed to bring the measured effect to its halfway point) is 0.24 nM on rat CB2 [2] and over 27000 nM on rat CB1.
As for `CCCCn1nc(C(C)(C)C)s/c1=N\C(=O)c1cc(C(F)(F)F)ccc1ONC(=O)OC(C)(C)C` [Example 141, tert-butyl 2-({[(2Z)-3-butyl-5-tert-butyl-1,3,4-thiadiazol-2(3H)-ylidene]amino}carbonyl)-4-(trifluoromethyl)phenoxycarbamate], the Ki on rat CB2 [1] was determined as 2.3 nM; at human CB2 receptors it was 0.32 nM. Moreover, the EC50 on rat CB2 [2] was determined as 1.12 nM; on rat CB1, 273 nM.
Turning to `CCCC(C)(C)c1ccc2c(c1)OC(C)(C)[C@@H]1CC=C(C)C[C@@H]21` [JWH-133], the “effect on β-amyloid-induced microglial activation and neurotoxicity” value in assay [3] was “abrogated β-amyloid-induced microglial activation and neurotoxicity”.
For `CCCCn1nc(C(C)(C)C)s/c1=N\C(=O)c1cc(C(F)(F)F)ccc1ONC(C)=O` [Example 154, 2-[(acetylamino)oxy]-N-[(2Z)-3-butyl-5-tert-butyl-1,3,4-thiadiazol-2(3H)-ylidene]-5-(trifluoromethyl)benzamide], the Ki on rat CB2 [1] (setting [7]) and at human CB2 receptors (setting [8]) was 1 nM in each case. Further, the EC50 at rat CB2 [2] worked out at 1.5 nM; on rat CB1 it was 58 nM.
In the case of `CN1CCCCC1Cn1cc(C(=O)c2cc([N+](=O)[O-])ccc2I)c2ccccc21` (centres unmarked) [AM-1241], the analgesic efficacy result in assay [4] is “robust analgesic efficacy”.
As for `CCCCn1nc(C(C)(C)C)s/c1=N\C(=O)c1cc(C(F)(F)F)ccc1ONC(C)(C)C` [Example 34, 2-[(tert-butylamino)oxy]-N-[(2Z)-3-butyl-5-tert-butyl-1,3,4-thiadiazol-2(3H)-ylidene]-5-(trifluoromethyl)benzamide], the inhibitory constant (Ki) at rat CB2 [1] (setting [7]) stood at 1.9 nM; on human CB2 receptors (setting [8]) it was 11 nM. Also, the EC50 is 0.43 nM at rat CB2 [2] and over 27000 nM at rat CB1.
Take `CC(C)(C)NOc1ccc(C(F)(F)F)cc1C(=O)/N=c1\sc(C(C)(C)C)nn1CCCC(F)(F)F` [Example 164, 2-[(tert-butylamino)oxy]-N-[(2Z)-5-tert-butyl-3-(4,4,4-trifluorobutyl)-1,3,4-thiadiazol-2(3H)-ylidene]-5-(trifluoromethyl)benzamide]: the Ki at rat CB2 [1] (setting [7]) is 0.3 nM; at human CB2 receptors (setting [8]), 1.8 nM. The EC50 came out at 0.28 nM on rat CB2 [2] and 1020 nM at rat CB1.
Consider `COc1ccc2c(c1)c(CCN1CCOCC1)c(C)n2C(=O)c1cccc(Cl)c1Cl` [GW405833], for which, in assay [5], the “efficacy in pain models” value is given as “efficacious”.
Take `CCCCn1nc(C(C)(C)C)s/c1=N\C(=O)c1cc(C(F)(F)F)ccc1ONC(C)C` [Example 144, N-[(2Z)-3-butyl-5-tert-butyl-1,3,4-thiadiazol-2(3H)-ylidene]-2-[(isopropylamino)oxy]-5-(trifluoromethyl)benzamide]: the Ki on rat CB2 [1] (setting [7]) was 0.8 nM; at human CB2 receptors (setting [8]), 0.6 nM. Further, the EC50 was 0.22 nM on rat CB2 [2] and 415 nM at rat CB1.
Turning to `CC(C)(C)NOc1ccc(C(F)(F)F)cc1C(=O)/N=c1\sc(C(C)(C)C)nn1CCCC#N` [Example 151, 2-[(tert-butylamino)oxy]-N-[(2Z)-5-tert-butyl-3-(3-cyanopropyl)-1,3,4-thiadiazol-2(3H)-ylidene]-5-(trifluoromethyl)benzamide], the Ki on rat CB2 [1] (setting [7]) is 1.2 nM; at human CB2 receptors (setting [8]), 4.3 nM. Besides, the EC50 at rat CB2 [2] was found to be 0.13 nM; on rat CB1 it was 938 nM.
For the compound `CC(C)(C)NOc1ccc(C(F)(F)F)cc1C(=O)/N=c1\sc(C(C)(C)C)nn1CC1CCC1` [Example 165, 2-[(tert-butylamino)oxy]-N-[(2Z)-5-tert-butyl-3-(cyclobutylmethyl)-1,3,4-thiadiazol-2(3H)-ylidene]-5-(trifluoromethyl)benzamide], the inhibition constant (Ki) on rat CB2 [1] (setting [7]) amounted to 0.8 nM; at human CB2 receptors (setting [8]), 2.8 nM. Further, the EC50 on rat CB2 [2] came out at 0.93 nM; at rat CB1, 925 nM.
Turning to SR144528, in the assay with mice, the “effect on osteoclast activity and ovariectomy-induced bone loss” value is “inhibit osteoclast activity and reverse ovariectomy-induced bone loss”.
(−)-Δ^9-Tetrahydrocannabinol [THC]: the “effect on progression of atherosclerotic lesions” value in [6] is reported as “slowed the progression of atherosclerotic lesions”.
For the compound `CCCCCCC(C)(C)c1cc(OC)c([C@@H]2C=C(CO)[C@@H]3C[C@H]2C3(C)C)c(OC)c1` [HU-308], in the assay on rat, the antinociceptive response entry is listed as “elicits an antinociceptive response”.
